Data from patent US8106099B2, “Combination of phenylcarboxamides with blockers of the IKr channel and their use for the treatment of atrial arrhythmias” (Sanofi-Aventis Deutschland GmbH, priority 2003, dated 2012).
“Also recorded” adds a separate entry of the source.

Columns and labels:
[1] = tested on: goats in persistent atrial fibrillation; assay: Investigation of cardioversion and AFCL in chronically fibrillating goats (two goats); format: in vivo; details: for effect on the AFCL by the substance on its own (in words) / cardioversion / termination of persistent fibrillation by the substance on its own: persistent AF goat model; for cardioversion / termination of persistent fibrillation by the substance on its own: example 1 at 0.1-10 mg/kg/h in the goat of table 4
Method: Investigation of Cardioversion in Chronically Fibrillating Goats
Experiments were carried out on two goats which were in persistent atrial fibrillation of more than 45 days.
The measurements of the AFCL and of the cardioversion were carried out successively.

[2] = tested on: normal and remodeled atria of goats; assay: Investigation of the refractory period (AERP) in normal goats and in goats with remodeled atria; format: in vivo; details: for effect on the AERP in remodeled atrium compared with normal atrium: remodeled versus normal atrium
Method: Investigation of the Refractory Period in Normal Goats and in Goats with Remodeled Atria
This electrical remodeling, which reflects the situation in the patient, was achieved by repetitive atrial stimulations as published by Wijffels et al. (Atrial fibrillation begets atrial fibrillation. A study in awake chronical instrumented goats. Circulation 1995, 92, 1954-68).
In the monotherapy, 0.12 mg of ibutilide per kg of bodyweight was administered over the length of time of 60 minutes (0.002 mg per kg per minute).
A similar infusion scheme was carried out on 5 further animals with dofetilide instead of ibutilide. […] In the monotherapy, 0.12 mg of dofetilide per kg of bodyweight was administered over the length of time of 60 minutes (0.002 mg per kg per minute).

SMILES	effect on the AFCL by the substance on its own (in words) [1]	cardioversion / termination of persistent fibrillation by the substance on its own [1]	prolongation of the AERP ([2]; remodeled atria, n=5 goats, dofetilide study)	effect on the AERP in remodeled atrium compared with normal atrium [2]	doses of the compound of example 1 that brought about cardioversion / termination of the atrial fibrillation ([1]; goat of table 3, monotherapy, or combination with ibutilide 2 mg/kg)	dose of the Kv1.5 blocker of example 1 leading to cardioversion / termination of persistent fibrillation ([1]; summary in description, combination with very low doses (for example 10 μg/kg) of the IKr channel blocker)	prolongation of the AERP ([2]; normal atria, n=5 goats, dofetilide study)	prolongation of the AERP ([2]; normal atria, n=7 goats, ibutilide study, relative to control before administration)	effective atrial refractory period (AERP), mean value ± SD ([2]; remodeled atria (induced AF 1 to 4 days), 7 goats, cycle length 400 ms, same infusion scheme with ibutilide)	effect on the AFCL by the substance on its own (in words) ([1]; listed as ibutilide)	prolongation of the AERP ([2]; remodeled atria, n=7 goats, ibutilide study)
CN(CCOc1ccc(NS(C)(=O)=O)cc1)CCc1ccc(NS(C)(=O)=O)cc1 [Dofetilide]	slight prolongation	a cardioversion does not occur; also recorded: not to a termination of the fibrillation	7 ms	markedly lower	–	–	–	–	–	–	–
COc1ccc(CC(=O)NCc2ccccc2-c2ccccc2C(=O)NCCc2cccnc2)cc1 [Example 1, 2′-{[2-(4-Methoxyphenyl)acetylamino]methyl}biphenyl-2-carboxylic acid (2-pyridin-3-ylethyl)amide]	dose-dependent increase	not to cardioversion	–	markedly greater	10 mg per kg of bodyweight per ho	10 mg/kg	51 ms	47 ms	160 ± 16 ms	–	–
CCCCCCCN(CC)CCCC(O)c1ccc(NS(C)(=O)=O)cc1.O=C(O)/C=C/C(=O)O (centres unmarked) [Ibutilide]	very small increase	not to a termination of the fibrillation	–	markedly lower	–	–	–	–	–	slight prolongation	5 ms
